The text below walks through data of ChEMBL document CHEMBL5625183, “Discovery of a novel dual-target inhibitor of CDK12 and PARP1 that induces synthetic lethality for treatment of triple-negative breast cancer” (Eur J Med Chem, 2023).

Where “and” joins values, the source holds several entries; their conditions need not be identical. Equal entries are not always repeated. Calls of active or inactive are those of the source. The rule behind the calls is not given here.

Data set [1] deals with MDA-MB-468. Description: Antiproliferative activity against human MDA-MB-468 cells assessed as inhibition of cell growth incubated for 72 hrs by MTT assay. It counts as functional, cell-based. The settings on record: MDA-MB-468, 72 h. (In general: Formazan colour is commonly taken as a measure of viable cells.)
Data set [2] has as its system MDA-MB-436. Description: Antiproliferative activity against human MDA-MB-436 cells assessed as inhibition of cell growth incubated for 72 hrs by MTT assay. The settings on record: MDA-MB-436, 72 h. It counts as functional, cell-based.
For data set [3], the system named is MDA-MB-231. Description: Synergistic antiproliferative activity against human MDA-MB-231 cells in presence of Olaparib incubated for 24 hrs by MTT assay. It counts as functional, cell-based.
Data set [4] deals with MDA-MB-436. Description: Antiproliferative activity against human MDA-MB-436 cells assessed as inhibition of cell growth incubated for 48 hrs by MTT assay. It counts as functional, cell-based. The settings on record: MDA-MB-436, 48 h.
In data set [5] the test system is MDA-MB-231. Description: Antiproliferative activity against human MDA-MB-231 cells assessed as inhibition of cell growth incubated for 48 hrs by MTT assay. It is filed as functional, cell-based. The settings on record: MDA-MB-231, 48 h.
For data set [6], the target named is T1, Cyclin-dependent kinase 12 (Homo sapiens, UniProt Q9NYV4). Description: Inhibition of CDK12 (unknown origin) at 1 uM in presence of ATP by kinase-glo plus luminescent assay relative to control. In general terms: In Kinase-Glo more light means more ATP remaining.
Target sequence in this assay (Q9NYV4 whole entry, looked up): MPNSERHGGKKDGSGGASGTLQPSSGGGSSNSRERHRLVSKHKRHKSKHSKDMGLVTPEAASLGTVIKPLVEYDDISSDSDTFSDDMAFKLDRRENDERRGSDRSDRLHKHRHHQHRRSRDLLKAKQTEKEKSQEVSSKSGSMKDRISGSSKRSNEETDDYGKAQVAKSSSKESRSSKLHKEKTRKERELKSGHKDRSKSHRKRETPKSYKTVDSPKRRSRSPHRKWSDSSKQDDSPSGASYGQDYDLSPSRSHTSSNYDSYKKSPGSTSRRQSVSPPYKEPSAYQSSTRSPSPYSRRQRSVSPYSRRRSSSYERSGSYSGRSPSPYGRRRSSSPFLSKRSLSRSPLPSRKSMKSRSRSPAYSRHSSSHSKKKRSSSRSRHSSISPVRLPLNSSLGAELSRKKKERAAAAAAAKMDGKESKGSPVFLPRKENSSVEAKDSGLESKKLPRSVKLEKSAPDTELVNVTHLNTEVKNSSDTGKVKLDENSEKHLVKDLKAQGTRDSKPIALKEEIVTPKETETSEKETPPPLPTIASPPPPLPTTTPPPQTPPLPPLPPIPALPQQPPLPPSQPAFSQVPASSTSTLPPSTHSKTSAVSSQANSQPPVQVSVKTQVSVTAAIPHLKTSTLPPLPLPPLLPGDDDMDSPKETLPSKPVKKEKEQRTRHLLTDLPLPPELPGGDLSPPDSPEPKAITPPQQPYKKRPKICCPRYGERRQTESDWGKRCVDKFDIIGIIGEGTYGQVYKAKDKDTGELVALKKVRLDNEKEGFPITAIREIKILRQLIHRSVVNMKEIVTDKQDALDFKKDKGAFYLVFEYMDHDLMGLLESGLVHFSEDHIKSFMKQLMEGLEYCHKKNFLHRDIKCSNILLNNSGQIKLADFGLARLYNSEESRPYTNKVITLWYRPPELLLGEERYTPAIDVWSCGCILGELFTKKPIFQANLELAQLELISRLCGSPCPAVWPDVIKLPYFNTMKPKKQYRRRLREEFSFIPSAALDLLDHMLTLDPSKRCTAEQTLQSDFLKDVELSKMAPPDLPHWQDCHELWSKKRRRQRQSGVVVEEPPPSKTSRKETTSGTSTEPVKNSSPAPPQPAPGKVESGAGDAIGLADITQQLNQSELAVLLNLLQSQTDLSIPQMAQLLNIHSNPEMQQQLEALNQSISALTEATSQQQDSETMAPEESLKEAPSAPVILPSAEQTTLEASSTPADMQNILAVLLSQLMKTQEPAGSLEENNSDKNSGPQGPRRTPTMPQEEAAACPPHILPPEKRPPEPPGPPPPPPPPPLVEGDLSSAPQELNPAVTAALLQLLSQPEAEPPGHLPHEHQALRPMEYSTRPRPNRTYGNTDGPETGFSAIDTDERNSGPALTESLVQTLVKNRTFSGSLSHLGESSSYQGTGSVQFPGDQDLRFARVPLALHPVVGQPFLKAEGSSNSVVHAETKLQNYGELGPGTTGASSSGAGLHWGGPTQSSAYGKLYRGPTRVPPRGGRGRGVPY
Data set [7] relates to MDA-MB-436. Description: Antiproliferative activity against human MDA-MB-436 cells assessed as inhibition of cell growth incubated for 24 hrs by MTT assay. It counts as functional, cell-based.
For data set [8], the system named is MDA-MB-231. Description: cells. Particulars: Homo sapiens, MDA-MB-231, 72 h.
The test system of data set [9] is MDA-MB-468. Description: Antiproliferative activity against human MDA-MB-468 cells assessed as inhibition of cell growth incubated for 48 hrs by MTT assay. Particulars: MDA-MB-468, 48 h. It is filed as functional, cell-based.
The target of data set [10] is T1, Cyclin-dependent kinase 12. Description: Inhibition of CDK12 (unknown origin) in presence of ATP by kinase-glo plus luminescent assay.
Target sequence in this assay (Q9NYV4 whole entry): as the sequence (Q9NYV4 whole entry, looked up) above
In data set [11] the test system is MDA-MB-231. Description: Antiproliferative activity against human MDA-MB-231 cells assessed as inhibition of cell growth incubated for 24 hrs by MTT assay. It counts as functional, cell-based. Particulars: MDA-MB-231, 24 h.
The target of data set [12] is Poly [ADP-ribose] polymerase 1 (Homo sapiens, UniProt P09874). Description: Inhibition of PARP1 (unknown origin) incubated for 1 hr by ELISA analysis.
Data set [13] addresses Poly [ADP-ribose] polymerase 2 (Homo sapiens, UniProt Q9UGN5). Description: Inhibition of PARP2 (unknown origin) incubated for 1 hr by ELISA analysis.
Data set [14] concerns MDA-MB-468. Description: Antiproliferative activity against human MDA-MB-468 cells assessed as inhibition of cell growth incubated for 24 hrs by MTT assay. The settings on record: MDA-MB-468, 24 h. It counts as functional, cell-based.
The nature of data set [15]: Metabolic stability in human liver microsome assessed as half life in presence of NADPH incubated upto 60 mins by LC-MS/MS analysis. It counts as ADME. Particulars: liver microsomes.
Data set [16] in a line: Metabolic stability in BALB/c mouse liver microsome assessed as intrinsic clearance in presence of NADPH incubated upto 60 mins by LC-MS/MS analysis. It counts as ADME. Particulars: liver microsomes, read-out: CLH.
The nature of data set [17]: Metabolic stability in human liver microsome assessed as intrinsic clearance in presence of NADPH incubated upto 60 mins by LC-MS/MS analysis. Particulars: liver microsomes, read-out: CLH. It is filed as ADME. (In general: Liver microsomes are a subcellular fraction often used to study metabolism.)
Data set [18] in a line: Metabolic stability in BALB/c mouse liver microsome assessed as half life in presence of NADPH incubated upto 60 mins by LC-MS/MS analysis. It counts as ADME. The settings on record: liver microsomes.

Poly [ADP-ribose] polymerase 2, sequence (Q9UGN5 whole entry): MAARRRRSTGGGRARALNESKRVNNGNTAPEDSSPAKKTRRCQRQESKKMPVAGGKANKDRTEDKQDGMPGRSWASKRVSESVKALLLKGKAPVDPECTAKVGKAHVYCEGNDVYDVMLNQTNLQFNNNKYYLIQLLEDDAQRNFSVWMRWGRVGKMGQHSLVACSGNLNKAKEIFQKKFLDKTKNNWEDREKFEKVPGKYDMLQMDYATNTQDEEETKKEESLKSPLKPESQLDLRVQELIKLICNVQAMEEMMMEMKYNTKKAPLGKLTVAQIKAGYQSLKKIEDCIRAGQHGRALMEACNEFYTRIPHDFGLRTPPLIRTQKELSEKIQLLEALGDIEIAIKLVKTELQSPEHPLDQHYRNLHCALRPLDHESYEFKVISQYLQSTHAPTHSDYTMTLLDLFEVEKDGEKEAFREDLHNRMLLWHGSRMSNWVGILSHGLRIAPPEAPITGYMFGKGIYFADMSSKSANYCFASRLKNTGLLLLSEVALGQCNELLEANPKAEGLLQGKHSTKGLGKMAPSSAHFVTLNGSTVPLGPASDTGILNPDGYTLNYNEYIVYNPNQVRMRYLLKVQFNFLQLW
Poly [ADP-ribose] polymerase 1, sequence (P09874 whole entry): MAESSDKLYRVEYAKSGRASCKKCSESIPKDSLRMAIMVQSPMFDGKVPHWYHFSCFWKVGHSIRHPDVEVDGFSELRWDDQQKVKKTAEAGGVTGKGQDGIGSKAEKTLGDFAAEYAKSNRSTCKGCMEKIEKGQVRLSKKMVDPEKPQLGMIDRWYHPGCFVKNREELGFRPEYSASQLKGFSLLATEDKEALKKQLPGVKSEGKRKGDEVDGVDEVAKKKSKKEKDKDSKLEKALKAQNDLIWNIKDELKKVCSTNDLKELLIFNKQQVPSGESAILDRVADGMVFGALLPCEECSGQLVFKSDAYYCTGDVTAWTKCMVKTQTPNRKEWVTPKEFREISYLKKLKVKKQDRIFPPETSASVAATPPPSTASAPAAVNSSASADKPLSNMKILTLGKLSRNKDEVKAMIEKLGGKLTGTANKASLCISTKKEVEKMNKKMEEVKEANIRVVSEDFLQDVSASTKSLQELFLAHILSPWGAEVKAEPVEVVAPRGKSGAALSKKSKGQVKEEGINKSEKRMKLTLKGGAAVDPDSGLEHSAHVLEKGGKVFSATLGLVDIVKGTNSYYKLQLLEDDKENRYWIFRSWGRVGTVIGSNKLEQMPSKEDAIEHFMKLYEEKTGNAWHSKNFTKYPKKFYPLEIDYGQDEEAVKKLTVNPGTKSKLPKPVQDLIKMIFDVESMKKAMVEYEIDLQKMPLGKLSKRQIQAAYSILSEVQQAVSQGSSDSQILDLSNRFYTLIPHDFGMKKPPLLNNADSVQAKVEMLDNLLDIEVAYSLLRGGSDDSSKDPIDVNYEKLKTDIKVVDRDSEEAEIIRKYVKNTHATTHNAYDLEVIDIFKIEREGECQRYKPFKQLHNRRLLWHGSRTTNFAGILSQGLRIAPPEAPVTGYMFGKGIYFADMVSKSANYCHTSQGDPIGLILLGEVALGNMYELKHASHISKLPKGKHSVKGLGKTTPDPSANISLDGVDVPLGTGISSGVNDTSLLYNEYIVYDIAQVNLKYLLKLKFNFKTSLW

A word on the IC50: it is the concentration that gives 50% inhibition. What is called inhibition is how much of the control response was suppressed. With `CN(C)C/C=C/C(=O)Nc1ccc(C(=O)N2CCC[C@@H](Nc3ncc(Cl)c(-c4c[nH]c5ccccc45)n3)C2)cc1`, the half-inhibitory concentration (IC50) in the data set with MDA-MB-468 [1] is 5.8 µM; with MDA-MB-436 [2] it was 6.4 µM; in the data set with MDA-MB-436 [4], 18.1 µM; with MDA-MB-231 [5], 17.9 µM; in the data set with MDA-MB-436 [7] (mda-mb-436), 14.3 µM and 4.6 µM; in the data set with MDA-MB-231 [8] it was 7.1 µM. For the same compound, in the data set on MDA-MB-468 [9], the 50% inhibitory concentration (IC50) was found to be 14.4 µM. Also, in the data set with MDA-MB-231 [3], the result was Active. The inhibition in data set [6] came to 98.6%.

`NC(=O)c1cccc2[nH]c(NC(=O)c3cccc(C(=O)N4CCC(Nc5ncc(C(F)(F)F)cn5)CC4)c3)nc12`: the IC50 came out at 0.269 µM in data set [10]; 10.3 µM in the data set with MDA-MB-231 [11]; 0.167 µM in [12]; 11.2 µM in the data set with MDA-MB-436 [7] (Homo sapiens, MDA-MB-436, 24 h); 0.131 µM in data set [13]; 10.5 µM in the data set on MDA-MB-468 [14]. The inhibition in data set [6] stood at 79.4%.

Take `O=C(c1cc(Cc2n[nH]c(=O)c3ccccc23)ccc1F)N1CCN(C(=O)C2CC2)CC1` [OLAPARIB]: the IC50 in the data set with MDA-MB-468 [1] was 0.6 µM; in the data set with MDA-MB-231 [11], 3.5 µM; in the data set with MDA-MB-436 [2], 0.7 µM; in the data set on MDA-MB-436 [4] it was 1.5 µM; in the data set on MDA-MB-231 [5] it was 1.7 µM; in the data set with MDA-MB-436 [7] (Homo sapiens, MDA-MB-436, 24 h), 4.6 µM. Moreover, the figures for the IC50 with MDA-MB-231 [8], in the data set with MDA-MB-468 [14] and in the data set on MDA-MB-468 [9] were 0.8 µM, 3.4 µM and 1.4 µM, respectively. Also, the inhibition in data set [6] is 7%.

By half-life is commonly meant how long it takes for the measured level to halve. Consider `O=C(c1ccc(F)cc1)C1CCN(CCn2c(=O)[nH]c3ccccc3c2=O)CC1` [KETANSERIN], for which the half-life in [15] was 33.6 min; in data set [18], 29.4 min. The figures for the CLint scaled in data set [16] and in data set [17] were 185 mL/min/kg and 47.7 mL/min/kg, respectively.

Regarding `NC(=O)c1cccc2[nH]c(NC(=O)c3cccc(C(=O)N4CCC(Nc5ncc(F)cn5)CC4)c3)nc12`, the IC50 was more than 10 µM in data set [10]; more than 30 µM in the data set on MDA-MB-231 [11]; 0.071 µM in data set [12]; 28.7 µM in the data set on MDA-MB-436 [7] (Homo sapiens, MDA-MB-436, 24 h); 0.065 µM in [13]; more than 30 µM in the data set on MDA-MB-468 [14]. Moreover, the inhibition in [6] was 24.3%.

As to `NC(=O)c1cccc2[nH]c(NC(=O)c3cccc(C(=O)N4CCC(Nc5ncc(Br)cn5)CC4)c3)nc12`, the IC50 in data set [10] was 0.344 µM; in the data set with MDA-MB-231 [11], 10.2 µM; in [12] it was 0.037 µM; in the data set with MDA-MB-436 [7] (Homo sapiens, MDA-MB-436, 24 h) it was 11.1 µM; in data set [13] it was 0.032 µM; in the data set on MDA-MB-468 [14], 12.4 µM. The inhibition in [6] was found to be 75.4%.

Take `NC(=O)c1cccc2[nH]c(NC(=O)c3cccc(C(=O)N4CCC(Nc5ncc(Cl)cn5)CC4)c3)nc12`: the IC50 was found to be 0.554 µM in [10]; 15.6 µM in the data set with MDA-MB-231 [11]; 0.043 µM in data set [12]; 12.6 µM in the data set with MDA-MB-436 [7] (Homo sapiens, MDA-MB-436, 24 h); 0.035 µM in data set [13]; 14.2 µM in the data set with MDA-MB-468 [14]. In data set [6], the inhibition is 68.3%.

On to `NC(=O)c1cccc2[nH]c(NC(=O)c3ccc(CN4CCC(Nc5ncc(F)cn5)CC4)cc3)nc12`, for which the IC50 is more than 30 µM in the data set with MDA-MB-231 [11]; more than 30 µM in the data set with MDA-MB-436 [7] (Homo sapiens, MDA-MB-436, 24 h); more than 30 µM with MDA-MB-468 [14]. In addition, the inhibition in [6] was 30.3%.

Regarding `CCc1cnc(NC2CCN(C(=O)c3cccc(C(=O)Nc4nc5c(C(N)=O)cccc5[nH]4)c3)CC2)nc1`, the concentration for half-maximal inhibition (IC50) with MDA-MB-231 [11] turned out to be 24.2 µM; in the data set on MDA-MB-436 [7] (Homo sapiens, MDA-MB-436, 24 h), 21.3 µM; with MDA-MB-468 [14] it was 23.1 µM. The inhibition in data set [6] is 48.7%.

In the case of `Cc1cnc(NC2CCN(C(=O)c3cccc(C(=O)Nc4nc5c(C(N)=O)cccc5[nH]4)c3)CC2)nc1`, the IC50 in the data set with MDA-MB-231 [11] is more than 30 µM; in the data set on MDA-MB-436 [7] (Homo sapiens, MDA-MB-436, 24 h) it was more than 30 µM; in the data set on MDA-MB-468 [14] it was more than 30 µM. In addition, in data set [6], the inhibition was 1.3%.

On to `NC(=O)c1cccc2[nH]c(NC(=O)c3ccc(C(=O)N4CCC(Nc5ccc(I)cn5)CC4)cc3)nc12`, for which the IC50 was more than 30 µM with MDA-MB-231 [11]; more than 30 µM in the data set with MDA-MB-436 [7] (Homo sapiens, MDA-MB-436, 24 h); more than 30 µM with MDA-MB-468 [14]. For the same compound, in data set [6], the inhibition amounted to 29.8%.

For the compound `NC(=O)c1cccc2[nH]c(NC(=O)c3cccc(C(=O)N4CCC(Nc5ncc([N+](=O)[O-])cn5)CC4)c3)nc12`, the 50% inhibitory concentration (IC50) in the data set on MDA-MB-231 [11] is more than 30 µM; with MDA-MB-436 [7] (Homo sapiens, MDA-MB-436, 24 h) it was more than 30 µM; with MDA-MB-468 [14], more than 30 µM. In addition, the inhibition in data set [6] was found to be 5.4%.

Consider `NC(=O)c1cccc2[nH]c(NC(=O)c3cccc(C(=O)N4CCC(Nc5ccc(I)cn5)CC4)c3)nc12`, for which the IC50 in the data set with MDA-MB-231 [11] is more than 30 µM; with MDA-MB-436 [7] (Homo sapiens, MDA-MB-436, 24 h) it was more than 30 µM; in the data set with MDA-MB-468 [14], more than 30 µM. Besides, the inhibition in data set [6] is 30.1%.

For the compound `NC(=O)c1cccc2[nH]c(NC(=O)c3ccc(CN4CCC(Nc5ncc(Br)cn5)CC4)cc3)nc12`, the IC50 was found to be 26.5 µM in the data set with MDA-MB-231 [11]; 24.2 µM with MDA-MB-436 [7] (Homo sapiens, MDA-MB-436, 24 h); 25.7 µM in the data set on MDA-MB-468 [14]. For the same compound, the inhibition in [6] amounted to 45.4%.

Consider `NC(=O)c1cccc2[nH]c(NC(=O)c3cccc(C(=O)N4CCN(c5ncc(C(F)(F)F)cn5)CC4)c3)nc12`, for which the IC50 with MDA-MB-231 [11] came out at 18.9 µM; with MDA-MB-436 [7] (Homo sapiens, MDA-MB-436, 24 h) it was 17.8 µM; with MDA-MB-468 [14], 19.3 µM. Also, in data set [6], the inhibition is 52.1%.
